Literature values as cited in article PMC5680437 (Journal of Clinical & Translational Endocrinology, 2015).

How the values were obtained:
[1] = subcutaneous; ref Morrow et al. [18]
[2] = system: healthy volunteers; settings: ref Arnolds et al. [19]
[3] = 0.2 U/kg dose; ref Heise et al. [20]

Row | Substance | Time to 50% of maximal concentration within the first hour [1] [min] | AUC for glucose infusion rate (to maintain euglycemia) [2] [mg/kg] | AUC for the glucose infusion rate in the first hour [3] [mg/kg]
1 | insulin aspart | 32 | 16 | –
2 | insulin glulisine | 21 | 30 | 102.3
3 | insulin lispro | 31 | – | 83.1
